What was measured:
Sprague-Dawley rats [1] = assay: 14-day GLP toxicity study in Sprague-Dawley rats (SRI study M602-08); assay type: in vivo
cynomolgus monkeys = assay: Pilot multiple dose safety/pharmacokinetic 7-day non-GLP study in cynomolgus monkeys (SRI study M158-01); assay type: in vivo; details: 200 mg/Kg once daily for 7 days
[2] = design: species or system NHPs; details: in vivo, 200 mg/kg
rats = assay: 7-Day non-GLP Toxicity Study in Rats (SRI study M587-08); assay type: in vivo; details: 50 or 150 mg/Kg/day for 7 days
Sprague-Dawley rats [3] = assay: Acute intravenous non-GLP toxicity study in rats (SRI study M001-98); assay type: in vivo; details: male and female Sprague-Dawley rats
dogs = assay: 7-day non-GLP toxicity study in dogs (SRI study M138-00); assay type: in vivo; details: orally as solid in gelatin capsules, 100 mg/kg daily for 7 days, 2 dogs

CN1CCN(C(=O)N[C@@H](Cc2ccccc2)C(=O)N[C@H](/C=C/S(=O)(=O)c2ccccc2)CCc2ccccc2)CC1.Cl [K777 HCl]
mortality or treatment-related adverse clinical signs (Sprague-Dawley rats [1]; 14-day, any dose level, SRI study M602-08): No mortality or treatment-related adverse clinical signs were observed following the administration of K777 HCl at any dose level.
changes in clinical chemistry parameters (total protein, potassium, phosphorus, creatinine increases; blood urea nitrogen decrease) (Sprague-Dawley rats [1]; rat, in vivo): not considered biologically significant
effects on hematology, urinalysis, or ophthalmology parameters (Sprague-Dawley rats [1]; rat, in vivo): no treatment-related adverse effects
histopathology (Sprague-Dawley rats [1]; rat, in vivo): No treatment-related histopathological abnormalities
mortality or morbidity (cynomolgus monkeys): No mortality or morbidity was observed following the administration of K777 HCl at 200 mg/Kg once daily for 7 days.
AUC [2]: 32500 ng·h/mL
Cmax [2]: 4500 ng/mL
Tmax [2]: 4 h
half-life [2]: ~4 h
tolerability (rats; male and female rats, SRI study M587-08): well tolerated
liver effects at the doses employed (rats; rats): mild and transient
target organ of toxicity (rats; rats): liver
dose producing mortality and adverse clinical signs (Sprague-Dawley rats [3]): K777 HCl administered IV to male and female Sprague-Dawley rats produced mortality and adverse clinical signs at 150 mg/Kg and higher.
mortality or morbidity (dogs): K777 HCl was administered orally as a solid in gelatin capsules to 2 dogs (1 male and 1 female) at 100 mg/kg daily for 7 days. No mortality or morbidity was observed in this study.
